Here are results for 9 molecules from PubChem BioAssay (NCI).

As usually defined, the GI50 is the concentration at which growth is held to half of that of the control. As a reminder, the TGI is the concentration giving total growth inhibition. Low values mean greater sensitivity of the cells, high ones lower sensitivity of the cells.

Common to all, as to assay: DTP human tumour cell line panel, 48 h
The subject of assay [1] is M14 melanoma.
Assay [2] concerns SF-539 CNS.
Assay [3] deals with HOP-62 NSCLC.
Assay [4] deals with NCI-H226 lung.
Assay [5] deals with MOLT-4 leukemia.
In assay [6] the test system is SNB-19 CNS.
In assay [7] the test system is LOX IMVI melanoma.
The subject of assay [8] is SN12C renal.
Assay [9] has as its system RXF 393 renal.
The subject of assay [10] is HOP-92 NSCLC.

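Growth conditions: 96-well plates. Treatment: test compound, 48 hours, 5 concentrations. Analysis: linear interpolation between bracketing concentrations; unreached endpoints set to highest concentration. GI50: concentration for 50% inhibition of growth. The concentration for full growth arrest is given as TGI.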

As for `O=c1[nH]c2ccccc2n1-c1n[nH]c2ccccc12`, the GI50 in [1] was 29.2 µM; in [2] it was 56.9 µM; in assay [3], 33.2 µM; in [4], 18.9 µM; in assay [5], 17.3 µM; in [6], 56.6 µM. The GI50 in [7] is 17.4 µM; in [8] it was 37.2 µM; in assay [9], 43.6 µM; in [10], 4.5 µM. Besides, the TGI was 88.2 µM in assay [1]; more than 100 µM in assay [2]; more than 100 µM in assay [3]; 55.4 µM in assay [4]; 84.9 µM in assay [5]; more than 100 µM in assay [6]. For the same molecule, the TGI is 52.5 µM in assay [7], more than 100 µM in assay [8], more than 100 µM in assay [9] and 58.2 µM in assay [10].

On to `Cc1cc(Cl)cc2c1NC(=O)C2=O` (tested in a mixture with another compound), for which the TGI was more than 100 µM in [1]; more than 100 µM in [2]; more than 100 µM in assay [3]; more than 100 µM in assay [4]; 54.7 µM in [5]; more than 100 µM in assay [6]. Further, the TGI in assay [7] was 33.2 µM; in [8] it was more than 100 µM; in [9] it was more than 100 µM; in assay [10], more than 100 µM.

For the molecule `O=C(NCCCCCCCNC(=O)OCc1ccc2c(Cl)cc(Cl)c(O)c2n1)OCc1ccc2c(Cl)cc(Cl)c(O)c2n1`, the GI50 is 0.419 µM in assay [1]; 0.414 µM in assay [2]; 1.4 µM in assay [3]; 0.557 µM in assay [4]; 0.367 µM in [5]; 1.59 µM in [6]. Moreover, the GI50 was 0.187 µM in assay [7], 0.774 µM in assay [8], 0.812 µM in [9] and 1.07 µM in assay [10]. The TGI is 1.73 µM in assay [1]; 1.48 µM in assay [2]; 3.22 µM in [3]; 1.59 µM in assay [4]; 2 µM in assay [5]; 3.06 µM in assay [6]. Moreover, the TGI in assay [7] worked out at 0.379 µM; in assay [8], 2.17 µM; in assay [9], 2.13 µM; in assay [10], 2.71 µM.

With `Nc1ccc2c(c1)c(N)nn2C(=O)Nc1ccc(Cc2ccccc2)cc1`, the GI50 in [1] is 4.59 µM; in assay [2], 8.7 µM; in assay [3] it was 11.2 µM; in assay [4] it was 16.1 µM; in assay [5], 4.48 µM; in [6], 13.9 µM. For the same molecule, the GI50 in assay [7] is 3.38 µM; in assay [8] it was 13.4 µM; in [9], 21.4 µM; in [10], 10.4 µM. For the same molecule, the TGI in assay [1] stood at 17.8 µM; in assay [2] it was 22.1 µM; in assay [3] it was 27 µM; in assay [4], 38.3 µM; in assay [5], 24.3 µM; in [6], 27.3 µM. Also, the TGI in [7] was 16 µM; in assay [8] it was 30.9 µM; in [9], 43.9 µM; in assay [10], 24.4 µM.

As to `COc1ccccc1NC(=O)C(CC(C(=O)Nc1ccccc1OC)/C(C)=N/Nc1ccc([N+](=O)[O-])cc1[N+](=O)[O-])/C(C)=N/Nc1ccc([N+](=O)[O-])cc1[N+](=O)[O-]` (configuration not stated), the TGI in [1], in assay [2], in assay [3], in assay [4], in assay [5] and in [6] was more than 100 µM in each case. Also, the TGI in assay [7], in [8], in [9] and in assay [10] was more than 100 µM each time.

As for `COC(=O)/C(=N/NC(N)=O)C(C(=O)OC)C(=O)C(=O)Nc1ccc(Cl)cc1` (configuration not stated), the TGI in assay [1], in [2], in assay [3], in assay [4], in [5] and in [6] was more than 100 µM each time. The TGI in assay [7], in assay [8], in assay [9] and in [10] was more than 100 µM each time.

In the case of `Cc1cc(Cl)ccc1NS(=O)(=O)c1ccc(-c2cnc(C3CC3)o2)cc1`, the GI50 was 0.254 µM in assay [1]; 0.215 µM in [2]; 0.556 µM in [3]; 1.04 µM in assay [4]; 0.405 µM in assay [5]; 0.395 µM in assay [6]. Further, the GI50 in assay [7] was 0.622 µM; in assay [8] it was 0.578 µM; in assay [9], 0.268 µM; in assay [10] it was 1.05 µM. Moreover, the TGI in assay [1] is 15.3 µM; in assay [2] it was 2.51 µM; in assay [3], 21.5 µM; in assay [4], 16.5 µM; in [5], more than 44.2 µM; in [6], 18.7 µM. In addition, the TGI in assay [7] worked out at 14.2 µM; in assay [8], 16.5 µM; in [9], 17.7 µM; in [10], 13 µM.

Regarding `CN1CCN(c2nc(-c3ccncc3)nc3sc4c(c23)CCCCCC4)CC1`, the GI50 in [1] is 5.32 µM; in assay [2], 8.32 µM; in assay [3], 6.5 µM; in assay [4] it was 10.4 µM; in [5], 3.8 µM; in assay [7], 8.23 µM. The GI50 in assay [8] was 5.64 µM; in [9], 4.08 µM; in assay [10], 0.654 µM. The TGI worked out at 18 µM in assay [1]; 21 µM in assay [2]; 19.4 µM in [3]; 34.2 µM in assay [4]; 16.2 µM in [5]; 20.5 µM in [7]. Moreover, the figures for the TGI in [8], in assay [9] and in [10] were 22 µM, 19 µM and 5.32 µM, respectively.

Regarding `CNC(=O)CN(CC(N)=O)C(N)=O`, the TGI in assay [1], in assay [2], in assay [3], in [4], in assay [5] and in [6] was more than 100 µM in each case. Also, the TGI in assay [7], in assay [9] and in assay [10] was more than 100 µM throughout.
